Reference: patent publication US20180214430A1, “Selective Inhibitors Of i-NOS For Use Against Viral Infection” (priority 2015, published 2018)
“Also recorded” adds a separate entry of the source. Where two headings read alike, the source gives them in different places. Marks after values point to notes of the source that are not given here.

Assays:
[1] = system: RSV; assay: RSV replication in A549 epithelial cell cultures (number of infected cells, immunofluorescence); format: cell-based, respiratory syncytial virus (A2) Long strain; settings: for IC50: read-out: IC50 on RSV replication (concentration needed to give a 50% reduction in number of infected cells/well)
[2] = system: influenza virus; assay: microbe, parasite or virus in culture; format: cell-based, Human influenza virus A/Puerto Rico/8/34 (H1N1)
[3] = system: respiratory syncytial virus; settings: mouse model of respiratory syncytial virus; cited from earlier work
[4] = system: NO production by RSV infected A549 epithelial cells; assay: Nitric oxide released into cell culture supernatant of RSV infected cells (chemiluminescence); format: cell-based, human; settings: for NO production by these cells: epithelial cells, qualitative statement
[5] = system: A549 cells; assay: Cytotoxicity assay (LDH in cell culture supernatant); format: cell-based, human; settings: uninfected and RSV infected A549 cells, concentration series
Protocol: To determine the level of cell damage following infection, 50 μl of the culture supernatant from each well were transferred to the corresponding well in 96 well microtitre plate. The LDH activity of the supernatant was measured by a LDH Assay kit, according to the manufacturer's instructions (Sigma, UK). 100 μl of LDH Assay solution was added to each well and the plate was incubated for 30 min at room temperature. After incubation, the absorbance was measured at two wavelengths, 490 nm (measurement) and 690 nm (reference), using a microplate reader (BioRad Laboratories, Hercules, Calif., USA). The percent LDH release was calculated by measuring the LDH content of lysed cells that remained attached to the plate.
To determine whether the concentration series of 1400 W we used was toxic to the A549 cells, and to eliminate the possibility that the reduction in viral antigen was due to toxicity, the concentration of lactate dehydrogenase (LDH) in the cell culture supernatant was measured. LDH is an enzyme that is only released by cells when the cell membrane integrity is reduced. Therefore the concentration of LDH in the cell culture supernatant is directly correlated to cell death.

[6] = system: RSV; assay: Mouse infection model: viral load of the lungs (plaque assay); format: in vivo, balb/c mice; settings: 10 mg/kg i.p. every 12 h
[7] = system: total lung NOS activity; assay: Mouse infection model: nitrite concentration of lung homogenate; format: in vivo, balb/c mice; settings: 10 mg/kg i.p. every 12 h
[8] = epithelial cells, qualitative statement
[9] = A549 cells, RPMI (1.15 mM L-Arg), after 24 h, ± 95% CI
[10] = RSV infected mice, day 3, 10 mg/kg
[11] = RSV infected mice, day 3, listed as 1400 W, 10 mg/kg

SMILES: CC(=O)N[C@H](C(=O)O)C(C)(C)SN=O (racemic) [SNAP, S-nitroso-N-acetylpenicillamine]
- viral (RSV) replication [1, 8]: did not affect

SMILES: NCCCNCCCCN(CCCN)/[N+]([O-])=N/O [Spermine (NONOate)]
- viral (RSV) replication [1]: inhibit
- IC50 [1]: 1500 ± 500 µM
- IC50 ([2]; read-out: IC50 on influenza virus replication (concentration needed to give a 50% reduction in number of infected cells/well)): 600 ± 400 µM

SMILES: Cl.N=c1c[n+](N2CCOCC2)[n-]o1 [SIN-1, 3-morpholinosydnonimine hydrochloride]
- viral (RSV) replication [1, 8]: did not affect

SMILES: COC(=O)[C@@H](N)CCCNC(=N)N[N+](=O)[O-] [L-NAME]
- IC50 on RSV replication (concentration needed to give a 50% reduction in number of infected cells/well) [1, 9]: No effect
- viral (RSV) replication [1, 8]: did not inhibit; also recorded: not to inhibit
- IC50 on influenza virus replication (concentration needed to give a 50% reduction in number of infected cells/well) [2, 9]: No effect

SMILES: CC1CCN=C(N)S1 (stereo not drawn) [AMT, 2-amino-5,6-dihydro-6-methyl-4H-1,3-thiazine]
- viral titres [3]: increase

SMILES: COc1ccnc(CCc2nc3ncccc3[nH]2)c1 [BYK191023]
- NO production by these cells [4]: reduction
- viral (RSV) replication [1, 8]: strongly inhibited
- IC50 ([1]; human respiratory syncytial virus, A549 cells, RPMI (1.15 mM L-Arg), after 24 h, ± 95% CI): 1100 ± 500 µM
- IC50 ([2]; unidentified influenza virus, A549, 24 h, read-out: IC50 on influenza virus replication (concentration needed to give a 50% reduction in number of infected cells/well), A549 cells, DMEM (0.35 mM L-Arg), after 24 h, ± 95% CI): 4800 ± 400 µM
- IC50 ([2]; unidentified influenza virus, A549, 24 h, read-out: IC50 on influenza virus replication (concentration needed to give a 50% reduction in number of infected cells/well), A549 cells, RPMI (1.15 mM L-Arg), after 24 h, ± 95% CI): 4300 ± 800 µM

SMILES: N=C(N)NCCC[C@H](N)C(=O)O [L-arginine]
- IC50 on RSV replication (concentration needed to give a 50% reduction in number of infected cells/well) [1, 9]: No inhibitory

SMILES: CC(=N)NCc1cccc(CN)c1 [1400W]
- toxicity: amount of LDH in the cell culture supernatant [5]: not affected; also recorded: not toxic
- Log10 pfu per gram lung ([6]; Mock infected mice, day 3): <0.18 Log10 pfu per gram lung
- Log10 pfu per gram lung ([6]; Mock infected mice, day 5): <0.18 Log10 pfu per gram lung
- Log10 pfu per gram lung [6, 10]: 0.51 ± 0.17 Log10 pfu per gram lung
- Log10 pfu per gram lung [6, 11]: significantly lower
- Log10 pfu per gram lung ([6]; RSV infected mice, day 5): 1.18 ± 0.92 Log10 pfu per gram lung
- amount of NO released into the cell culture supernatant ([4]; RSV infected A549 cells, concentrations above 1 mM): significant decrease
- NO production by these cells [4]: reduction
- number of RSV-infected cells ([1]; A549 cells, 24 hrs, concentrations above 1 mM): significantly decreased
- IC50 [1, 9]: 1100 ± 500 µM
- viral (RSV) replication [1, 8]: strongly inhibited
- IC50 ([2]; A549 cells, DMEM (0.35 mM L-Arg), after 24 h, ± 95% CI, read-out: IC50 on influenza virus replication (concentration needed to give a 50% reduction in number of infected cells/well)): 3700 ± 1000 µM
- IC50 ([2]; A549 cells, RPMI (1.15 mM L-Arg), after 24 h, ± 95% CI, read-out: IC50 on influenza virus replication (concentration needed to give a 50% reduction in number of infected cells/well)): 4600 ± 900 µM
- Nitrite lung homogenate ([7]; Mock infected mice, day 3): 26.0 (5.4) uM
- Nitrite lung homogenate ([7]; Mock infected mice, day 5): 21.6 (3.0) uM
- Nitrite lung homogenate [7, 10]: 16.7 (1.9)* uM
- Nitrite lung homogenate [7, 11]: significantly reduced
- Nitrite lung homogenate ([7]; RSV infected mice, day 5): 23.7 (3.3) uM
